# Laboratory results reported in patent US20080200454A1, “CARBON-LINKED TETRAHYDRO-PYRAZOLO-PYRIDINE MODULATORS OF CATHEPSIN S” (priority 2007, published 2008).
# Target: Recombinant human cathepsin S (CatS) (Homo sapiens, UniProt P25774)
# Assay: Recombinant human cathepsin S (CatS) inhibition assay, fluorogenic substrate Z-Valine-Valine-Arginine-AMC;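 note: Baculovirus-expressed CatS in pH 5.0 sodium acetate buffer with DTT and NaCl, fluorescence read each minute over 20 min, inhibition derived from rate slope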
# Settings: not given
# Chain of Recombinant human cathepsin S (CatS) (P25774 115-331): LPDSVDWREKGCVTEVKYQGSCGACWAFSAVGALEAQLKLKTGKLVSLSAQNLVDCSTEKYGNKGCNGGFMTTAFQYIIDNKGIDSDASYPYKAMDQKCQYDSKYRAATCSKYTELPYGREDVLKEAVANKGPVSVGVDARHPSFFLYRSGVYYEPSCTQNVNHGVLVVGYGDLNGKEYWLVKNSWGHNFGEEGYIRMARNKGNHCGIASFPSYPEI
row,Compound,IC50
1,"Clc1ccc(C#Cc2cc(-c3nn(CCCN4CCOCC4)c4c3CNCC4)ccc2Cl)cc1 [Example 297, 3-{4-Chloro-3-[(4-chlorophenyl)ethynyl]phenyl}-1-(3-morpholin-4-ylpropyl)-4,5,6,7-tetrahydro-1H-pyrazolo[4,3-c]pyridine]",1600 nM
2,"CC(C)(C)OC(=O)NC1CCN(CC(O)Cn2nc(-c3ccc(Cl)c(C#Cc4ccc(Cl)cc4)c3)c3c2CCN(S(C)(=O)=O)C3)CC1 (stereo not drawn) [Example 130, [1-(3-{3-[4-Chloro-3-(4-chloro-phenylethynyl)-phenyl]-5-methanesulfonyl-4,5,6,7-tetrahydro-pyrazolo[4,3-c]pyridin-1-yl}-2-hydroxy-propyl)-piperidin-4-yl]-carbamic acid tert-butyl ester]",80 nM
3,"CS(=O)(=O)N1CCc2c(c(-c3ccc(Cl)c(C#Cc4ccc(Br)cc4)c3)nn2CCCN2CCOCC2)C1 [Example 18, 3-[3-(4-Bromo-phenylethynyl)-4-chloro-phenyl]-5-methanesulfonyl-1-(3-morpholin-4-yl-propyl)-4,5,6,7-tetrahydro-1H-pyrazolo[4,3-c]pyridine]",180 nM
4,"CS(=O)(=O)N1CCc2c(c(-c3ccc(Cl)c(C#Cc4ccc(CC#N)cc4)c3)nn2CCCN2CCOCC2)C1 [Example 3, (4-{2-Chloro-5-[5-methanesulfonyl-1-(3-morpholin-4-yl-propyl)-4,5,6,7-tetrahydro-1H-pyrazolo[4,3-c]pyridin-3-yl]-phenylethynyl}-phenyl)-acetonitrile]",270 nM
5,"CS(=O)(=O)N1CCc2c(c(-c3ccc(Cl)c(C#Cc4cncc(CNCc5ccccc5)c4)c3)nn2CCCN2CCOCC2)C1 [Example 427, 1-[5-({2-Chloro-5-[5-(methylsulfonyl)-1-(3-morpholin-4-ylpropyl)-4,5,6,7-tetrahydro-1H-pyrazolo[4,3-c]pyridin-3-yl]phenyl}ethynyl)pyridin-3-yl]-N-(phenylmethyl)methanamine]",1990 nM
6,"C[C@@H]1COCCN1CCCn1nc(-c2ccc(Cl)c(C#Cc3ccc(CNCc4ccc(Cl)cc4)cc3)c2)c2c1CCN(C(=O)C(N)=O)C2 [Example 620, 2-(3-{4-Chloro-3-[(4-{[(4-chlorobenzyl)amino]methyl}phenyl)ethynyl]phenyl}-1-{3-[(3R)-3-methylmorpholin-4-yl]propyl}-1,4,6,7-tetrahydro-5H-pyrazolo[4,3-c]pyridin-5-yl)-2-oxoacetamide]",150 nM
7,"CS(=O)(=O)N1CCc2c(c(-c3ccc(Cl)c(C#Cc4ccc(Cl)c(C(=O)NCCN5CCOCC5)c4)c3)nn2CCCN2CCCCC2)C1 [Example 593, 2-Chloro-5-({2-chloro-5-[5-(methylsulfonyl)-1-(3-piperidin-1-ylpropyl)-4,5,6,7-tetrahydro-1H-pyrazolo[4,3-c]pyridin-3-yl]phenyl}ethynyl)-N-(2-morpholin-4-ylethyl)benzamide]",60 nM
8,"NC(=O)C(=O)N1CCc2c(c(-c3ccc(Cl)c(C#Cc4ccc(Cl)c(CNC5CC5)c4)c3)nn2CCCN2CCCCC2)C1 [Example 600, 2-{3-[4-Chloro-3-({4-chloro-3-[(cyclopropylamino)methyl]phenyl}ethynyl)phenyl]-1-(3-piperidin-1-ylpropyl)-1,4,6,7-tetrahydro-5H-pyrazolo[4,3-c]pyridin-5-yl}-2-oxoacetamide]",30 nM
9,"CS(=O)(=O)N1CCc2c(c(-c3ccc(C(F)(F)F)c(CCc4ccc(Cl)cc4)c3)nn2CC(O)CN2CCC(N3CCCC3=O)CC2)C1 (stereo not drawn) [Example 146, 1-{1-[3-(3-{3-[2-(4-Chloro-phenyl)-ethyl]-4-trifluoromethyl-phenyl}-5-methanesulfonyl-4,5,6,7-tetrahydro-pyrazolo[4,3-c]pyridin-1-yl)-2-hydroxy-propyl]-piperidin-4-yl}-pyrrolidin-2-one]",60 nM
10,"CS(=O)(=O)N1CCc2c(c(-c3ccc(Cl)c(CCCN4CCCC4)c3)nn2CCCN2CCC(N3CCCC3=O)CC2)C1 [Example 101, 1-[1-(3-{3-[4-Chloro-3-(3-pyrrolidin-1-yl-propyl)-phenyl]-5-methanesulfonyl-4,5,6,7-tetrahydro-pyrazolo[4,3-c]pyridin-1-yl}-propyl)-piperidin-4-yl]-pyrrolidin-2-one]",2060 nM
11,"CS(=O)(=O)N1CCc2c(c(-c3ccc(Cl)c(CCc4ccc(CO)cc4)c3)nn2CCCN2CCOCC2)C1 [Example 61, [4-(2-{2-Chloro-5-[5-methanesulfonyl-1-(3-morpholin-4-yl-propyl)-4,5,6,7-tetrahydro-1H-pyrazolo[4,3-c]pyridin-3-yl]-phenyl}-ethyl)-phenyl]-methanol]",200 nM
12,"CS(=O)(=O)N1CCc2c(c(-c3ccc(Cl)c(C#CCCCc4ccccc4)c3)nn2CCCN2CCOCC2)C1 [Example 43, 3-[4-Chloro-3-(5-phenyl-pent-1-ynyl)-phenyl]-5-methanesulfonyl-1-(3-morpholin-4-yl-propyl)-4,5,6,7-tetrahydro-1H-pyrazolo[4,3-c]pyridine]",5450 nM
13,"NC(=O)N1CCc2c(c(-c3ccc(Cl)c(C#Cc4cccc(CNCc5ccccc5Cl)c4)c3)nn2CCCN2CCSCC2)C1 [Example 513, 3-(4-Chloro-3-{[3-({[(2-chlorophenyl)methyl]amino}methyl)phenyl]ethynyl}phenyl)-1-(3-thiomorpholin-4-ylpropyl)-1,4,6,7-tetrahydro-5H-pyrazolo[4,3-c]pyridine-5-carboxamide]",230 nM
14,"CC(C)N1CCc2ccc(C#Cc3cc(-c4nn(CCCN5CCOC[C@@H]5C)c5c4CN(S(C)(=O)=O)CC5)ccc3Cl)cc2C1 [Example 279, 7-({2-Chloro-5-[1-{3-[(3S)-3-methylmorpholin-4-yl]propyl}-5-(methylsulfonyl)-4,5,6,7-tetrahydro-1H-pyrazolo[4,3-c]pyridin-3-yl]phenyl}ethynyl)-2-(1-methylethyl)-1,2,3,4-tetrahydroisoquinoline]",110 nM

# Same assay, conditions: CatS IC50
row,Compound,IC50
1,"O=C(CO)N1CCc2c(c(-c3ccc(Cl)c(C#Cc4ccc(CNCc5ccc(Cl)cc5)cc4)c3)nn2CCCN2CCN(c3ccccc3)CC2)C1 [Example 172, 2-{3-(4-Chloro-3-{[4-({[(4-chlorophenyl)methyl]amino}methyl)phenyl]ethynyl}phenyl)-1-[3-(4-phenylpiperazin-1-yl)propyl]-1,4,6,7-tetrahydro-5H-pyrazolo[4,3-c]pyridin-5-yl}-2-oxoethanol]",30 nM
2,"C[C@H]1COCCN1CCCn1nc(-c2ccc(Cl)c(C#Cc3ccc(Cl)c(CNC4CC4)c3)c2)c2c1CCN(C(=O)C(N)=O)C2 [Example 589, 2-(3-[4-Chloro-3-({4-chloro-3-[(cyclopropylamino)methyl]phenyl}ethynyl)phenyl]-1-{3-[(3S)-3-methylmorpholin-4-yl]propyl}-1,4,6,7-tetrahydro-5H-pyrazolo[4,3-c]pyridin-5-yl)-2-oxoacetamide]",30 nM
3,"CN(Cc1ccc(Cl)cc1)Cc1ccc(C#Cc2cc(-c3nn(CCCN4CCOCC4)c4c3CN(S(C)(=O)=O)CC4)ccc2Cl)cc1 [Example 495, 1-[4-({2-Chloro-5-[5-(methylsulfonyl)-1-(3-morpholin-4-ylpropyl)-4,5,6,7-tetrahydro-1H-pyrazolo[4,3-c]pyridin-3-yl]phenyl}ethynyl)phenyl]-N-[(4-chlorophenyl)methyl]-N-methylmethanamine]",770 nM
4,"CN(C)Cc1cc(C#Cc2cc(-c3nn(CCCN4CCSCC4)c4c3CN(C(N)=O)CC4)ccc2Cl)ccc1Cl [Example 615, 3-[4-Chloro-3-({4-chloro-3-[(dimethylamino)methyl]phenyl}ethynyl)phenyl]-1-(3-thiomorpholin-4-ylpropyl)-1,4,6,7-tetrahydro-5H-pyrazolo[4,3-c]pyridine-5-carboxamide]",30 nM
5,"C[C@H]1COCCN1CCCn1nc(-c2ccc(Cl)c(C#Cc3ccc4c(c3)CN(CC(F)(F)F)CC4)c2)c2c1CCN(S(C)(=O)=O)C2 [Example 501, 7-({2-Chloro-5-[1-{3-[(3S)-3-methylmorpholin-4-yl]propyl}-5-(methylsulfonyl)-4,5,6,7-tetrahydro-1H-pyrazolo[4,3-c]pyridin-3-yl]phenyl}ethynyl)-2-(2,2,2-trifluoroethyl)-1,2,3,4-tetrahydroisoquinoline]",750 nM
6,"NC(=O)N1CCc2c(c(-c3ccc(Cl)c(C#Cc4ccc(CNCc5cccc(Cl)c5)cc4)c3)nn2CCCN2CCSCC2)C1 [Example 487, 3-(4-Chloro-3-{[4-({[(3-chlorophenyl)methyl]amino}methyl)phenyl]ethynyl}phenyl)-1-(3-thiomorpholin-4-ylpropyl)-1,4,6,7-tetrahydro-5H-pyrazolo[4,3-c]pyridine-5-carboxamide]",60 nM
7,"CS(=O)(=O)N1CCc2c(c(-c3ccc(Cl)c(C#Cc4cccc(CNCC(=O)O)c4)c3)nn2CCCN2CCOCC2)C1 [Example 189, N-{[3-({2-Chloro-5-[5-(methylsulfonyl)-1-(3-morpholin-4-ylpropyl)-4,5,6,7-tetrahydro-1H-pyrazolo[4,3-c]pyridin-3-yl]phenyl}ethynyl)phenyl]methyl}glycine]",140 nM
8,"CS(=O)(=O)N1CCc2c(c(-c3ccc(Cl)c(C#Cc4ccc(CNCc5ccc(Cl)cc5)cc4)c3)nn2C[C@H](O)CN2CCSCC2)C1 [Example 262, (R)-1-[3-(4-Chloro-3-{4-[(4-chloro-benzylamino)-methyl]-phenylethynyl}-phenyl)-5-methanesulfonyl-4,5,6,7-tetrahydro-pyrazolo[4,3-c]pyridin-1-yl]-3-thiomorpholin-4-yl-propan-2-ol]",120 nM
9,"CS(=O)(=O)N1CCc2c(c(-c3ccc(Cl)c(C#Cc4ccc5c(c4)CN(C(=O)C(F)(F)F)C5)c3)nn2CCCN2CCOCC2)C1 [Example 364, 3-(4-Chloro-3-{[2-(trifluoroacetyl)-2,3-dihydro-1H-isoindol-5-yl]ethynyl}phenyl)-5-(methylsulfonyl)-1-(3-morpholin-4-ylpropyl)-4,5,6,7-tetrahydro-1H-pyrazolo[4,3-c]pyridine]",170 nM
10,"CS(=O)(=O)N1CCc2c(c(-c3ccc(Cl)c(C#Cc4ccc(CNCc5ccc(Cl)cc5)cc4)c3)nn2CCCN2CC[C@H](O)C2)C1 [Example 382, (3S)-1-{3-[3-(4-Chloro-3-{[4-({[(4-chlorophenyl)methyl]amino}methyl)phenyl]ethynyl}phenyl)-5-(methylsulfonyl)-4,5,6,7-tetrahydro-1H-pyrazolo[4,3-c]pyridin-1-yl]propyl}pyrrolidin-3-ol]",110 nM
